Assay results as given in US5880146A, “Inhibition of IL-12-induced IFN-γ synthesis by specific bis-phenol compounds as a method of immune modulation” (Fuji ImmunoPharmaceuticals Corporation, priority 1995, dated 1999).

Legend:
[1] = system: T cell response of human PBMC to allogenic stimulation by Namalwa cells; assay: Mixed Lymphocyte Reaction (proliferation and IFN-γ secretion); format: cell-based; conditions: 6 days; FIGS. 1-3
Experimental: This reaction measures the T cell response to allogenic stimulation by a mismatch of class II histocompatability antigens. This is triggered through the T cell receptor and activates the T cell to secrete and proliferate in response to endogenous IL-2. IFN-γ is also made in response to this stimulation and accumulates in the culture medium. Compounds are tested for their ability to block the proliferation and response to antigenic stimulation as well as their ability to produce IFN-γ as follows. A human B cell ine expressing class II antigen, Namalwa (American Type Culture Collection), is incubated for 2 hr at 37° C. in RPMI-10 containing mitomycin C (50 μg/ml). These cells are washed four times by centrifugation and resuspension (10^6 cells/ml) in SF-RPMI medium and are added to the wells of 96-well plate (50 μl/well) as stimulators. Mitomycin treatment prevents these cells from proliferating in the assay. Fresh PBMC are prepared as described above in example 1, but are not activated with PHA. Instead they are resuspended at 10^6 cells/ml and 100 μl is added per well. Dilutions of test compounds are added (50 μl/well) to give a final volume of 200 μl and the plates are incubated for 6 days at 37° C. During the last 18 hr, ^3 H-thymidine (DuPont-NEN- 1 μCi/well) is added as a measure of cell proliferation, cultures are collected using a cell harvester (Packard), and scintillation fluid is added prior to counting in a Packard Top Count scintillation counter. A sample of medium is also collected for measurement of IFN-γ production prior to the addition of ^3 H-thymidine for use as a negative control.

[2] = system: IL-12 induction of IFN-γ in PHA-activated human PBMC; assay: Screening assay for compounds which inhibit IL-12 induction of IFN-γ (ELISA); format: cell-based; conditions: 5 μg/ml, IL-2 25 U/ml + IL-12 0.5 ng/ml, 48 hr, single test, read-out: % INH of IFNγ
Experimental: Human peripheral blood monocytes (PBMC) were obtained from commercial sources as a leukophoresis from a healthy volunteer and were purified by centrifugation on a Ficoll-Hypaque (Pharmacia) gradient (1700 rpm for 20 min). The "buffy" coat containing the PBMC was diluted with serum-free culture medium (SF-RPMI) to a volume of 50 ml and collected by centrifugation at 1500 rpm for 5 min. Cells were resuspended in cell culture medium containing 10% fetal bovine serum (RPMI-10) and phytohemaglutinin (PHA - 10 μg/ml) at a density of 5×10^6 cells/ml and were cultured for 3 days at 37° C. in a humidified CO2 incubator. The PHA-activated cells were collected by centrifugation, washed three times with an equal volume of SF-RPMI and resuspended in fresh RPMI-10 (1×10^6 cells /ml). Aliquots (100 μl) were dispensed into the wells of multiple 96-well plates to give a final cell number of 10^5 per well. Test compounds, dissolved in dimethyl sulfoxide (DMSO) at 1 mg/ml, were first diluted in culture medium to an intermediate concentration of 20 μg/ml and then were added (50 μwell) to a specific well of the plate for each compound. Stimulation medium (50 μl/well) containing 10% serum, IL-2 and IL-12 was added to final concentrations of 25 U/ml and 0.5 ng/ml, respectively. Control wells receive no IL-2 or IL-12 (negative control) or received both interleukins but no test compound (positive control). The plates were incubated for 48 hr at 37° C. in a CO2 incubator at which time aliquots (20 μl) were removed for analysis of IFN-γ concentration by ELISA. A quantitative ELISA was developed by coating 96-well plates with an mouse monoclonal antibody against human IFN-γ, 1 μg/ml in phosphate buffered saline (PBS) (Pestka Biological Laboratories), overnight at 4° C. Unbound antibody was washed off by washing three times with PBS. Non-specific antibody binding was blocked with a solution of 1% bovine serum albumin (BSA) and 1% goat serum in PBS (150 μl/well) which was incubated for 2 hr at 37° C. After washing the blocked plates four times with PBS, test samples and dilutions of the IFN-γ standard are added in a final volume of 100 μl/well. Following an overnight incubation at 4° C., the plates are washed four times with PBS, and a polyclonal rabbit antiserum against human IFN-γ (1/10000 dilution--Petska Biological Laboratories) is added. After an additional incubation for 1 hr at 37° C. and four washes with PBS, a polyclonal donkey anti-rabbit detecting antibody, conjugated to horseradish peroxidase (1/700 dilution--Petska Biological Laboratories) is added for 1 hr at 37° C. The plates are then washed four times with PBS and 100 μl of K-blue substrate E(ILISA Technologies, Neogen Corp.) is added until the color in the wells containing the standard curve is sufficiently developed, at which time 100 μl of "Red-stop" solution (ELISA Technologies) is added. The absorbance of the solution within each well of the plate is then read at 650 nm using an ELISA plate reader (Dynatech MR7000). The amount of IFN-γ is calculated by comparing the optical density of the test sample with a standard curve derived from the dilutions of the control IFN-y. The amount of IFN-γ that is induced in the presence of both IL-2 and IL-12 generally ranges from 1200-2000 pg/ml while the amount produced in the absence of IL-12 is generally less than 50 pg/ml. Experimental data are shown in Table 2 which discloses a) the percent inhibition of IFNγ production, relative to a […], when the cells have been treated with a bis-compound at a final concentration of 5 μg/ml of the listed bis-compound (%INH or IFNγ) and b) the percent of cells which are viable after the treatment with 5 μg/ml of the various bis-compounds, determined by adding MTS to the media (% Viability). MTS is a chemical chromophore that is metabolized in the mitochondria of viable cells to produce a color which increases in intensity in proportion to the numbers of viable cells. […]

| Structure (SMILES) | inhibition of IFN-γ secretion versus cell proliferation (in words) [1] | inhibition at 5 µg/mL [2] [%] |
| --- | --- | --- |
| CCCCCCCC(c1cc(C)cc(C)c1O)c1cc(C)cc(C)c1O [Compound 51852] | more potent inhibitors of secretion at concentrations that do not effect cell proliferation | 109 |
| Cc1cc(C)c(O)c(C(CC(C)CC(C)(C)C)c2cc(C)cc(C)c2O)c1 (stereo not shown) [Compound 51853, bis-1,1-[2-hydroxy-3,5-dimethylphenyl]-3,5,5-dimethyl hexan] | more potent inhibitors of secretion at concentrations that do not effect cell proliferation | 104 |
